Columns and labels:
[1] = tested on: GBM, AKT SL (secondary-like) subtype; test: Kaplan Meier survival of TCGA GBM patients receiving or not receiving BCNU and/or CCNU, by AKT subgroup; format: in vivo, human; settings: for survival advantage: Secondary-Like patients, CCNU/BCNU; for median survival: TCGA SL patients treated with BCNU or CCNU (vs. other treatments), p=0.03 after correcting for age, log rank; for sensitivity of patients in the SL subgroup: TCGA SL subgroup
Text: FIG. 5 depicts, in accordance with various embodiments of the invention, evidence that SL subtype (AKT subgroup 5) patients are sensitive to alkylating agents BCNU and CCNU. Kaplan Meier survival curves for TCGA patients receiving (solid line) or not receiving (dashed line) alkylating agent (BCNU and/or CCNU) by subgroup. p=0.03 after correcting for age (SL subtype; log rank). n=6 and 16 for SL patients receiving or not receiving BCNU/CCNU, respectively.
The discovery dataset (GBM195) consisted of 181 GBM (WHO grade IV astrocytoma; (159 primary and 22 recurrent) from 3 datasets, [4], [21] and 14 non-neoplastic samples from 2 sources: (1) six samples from patients undergoing temporal lobe epilepsy surgery and (2) eight samples from autopsy specimens of cerebral cortex from donors with no history of neurological disorders obtained from the National Neurological Research Brain Bank (Los Angeles, Calif.). Two datasets are in GEO (GSE4271, GSE4412) and the third has been submitted. Table 1 lists GEO ID's and clinical information for GBM195 tumors. Tissue collection and processing, pathological review, and microarray analysis for the discovery dataset (GBM195) has been described elsewhere ([3] Nigro et al. 2005, [4] Phillips et a. 2006, and [21] Freije et al. 2004, which are incorporated herein by reference in their entirety as though fully set forth.) The validation dataset consisted of 583 samples; 573 GBM (16 recurrent and 3 secondary) and 10 non-neoplastic samples from The Cancer Genome Atlas (TCGA). Samples were collected and processed as described ([5] Atlas TCG 2008, which is incorporated herein by reference in its entirety as though fully set forth.). IRB or Committee on Human Research approval was obtained for samples used in the discovery and validation datasets as described, [4], [10], [21].
Differences between one subgroup and the rest were assessed using the F test for […] and the likelihood ratio test for categorical variables. The Bonferroni method was applied to correct for multiple hypotheses. The inventors applied the Tukey HSD test to find pairwise differences between groups and correct for multiple comparisons. Survival differences between subgroups were assessed using the Chi-squared test. Age was added to build a multivariate Cox model. For survival comparisons of BCNU/CCNU treatment between subgroups there were not enough observations to correct for age. After deleting all observations younger than 45, survival was no longer related to age. Significance was then determined using log rank. The Pearson goodness-of-fit test was used to assess the null hypothesis that proportions of G-CIMP tumors by subgroup and recurrent tumors by subgroup are equal to the proportions for all tumors by subgroup. P-values for these tests were calculated by Monte Carlo simulation since the counts of tumors by subgroup were too small to apply the large sample chi-square approximation.
Since AKT influences response to chemotherapy, while not wishing to be bound by any theory, the inventors believe AKT subgroups are predictive markers. Indeed, TCGA SL patients treated with BCNU or CCNU had longer median survival than those receiving other treatments (FIG. 5; median survival=5.8 vs. 1.05 years; p=0.03 after correcting for age; log rank). […] This finding indicates patients in the SL subgroup are sensitive to BCNU and CCNU.

[2] = tested on: Glioblastoma AKT subgroups (Mesenchymal, Secondary-Like); test: Kaplan Meier survival of TCGA patients receiving more vs. less temozolomide, by AKT subgroup; format: in vivo, human
Text: FIG. 17 depicts, in accordance with various embodiments of the invention, evidence that Mesenchymal patients benefit from temozolomide. Kaplan Meier survival curves were plotted within each subgroup for TCGA patients receiving more (≥3 cycles; red) vs. less (<3 cycles; black) temozolomide. […] Median survival was 0.6 years greater for Mesenchymal patients treated with more temozolomide (1.8 years) vs. less temozolomide (1.2 years); p=0.01 log rank; not age adjusted.
We plotted Kaplan Meier survival curves for patients treated with more vs. less TMZ in each AKT subgroup (FIG. 17). Since most TCGA patients received some TMZ, it was not possible to plot survival curves for patients treated with and without the drug. Instead, we compared survival in 2 treatment arms, those receiving more (≥3) vs. less (<3) cycles.
There was a tendency for patients who received more TMZ to not have received a nitrosourea. […] Without wishing to be bound by any particular theory, this may underlie the worse survival of patients receiving more TMZ in the Secondary-Like subgroup.

| SMILES | survival advantage [1] | median survival [1] | sensitivity of patients in the SL subgroup [1] | median survival ([2]; less temozolomide (<3 cycles)) | median survival ([2]; more temozolomide (≥3 cycles), p=0.01 log rank, not age adjusted) | Median survival difference, more vs. less temozolomide ([2]; ≥3 vs. <3 cycles) |
| --- | --- | --- | --- | --- | --- | --- |
| O=NN(CCCl)C(=O)NCCCl [BCNU, carmustine] | 4.5 year | 5.8 years | sensitive | – | – | – |
| O=NN(CCCl)C(=O)NC1CCCCC1 [CCNU, lomustine] | 4.5 year | 5.8 years | sensitive | – | – | – |
| Cn1nnc2c(C(N)=O)ncn2c1=O [temozolomide] | – | – | – | 1.2 years | 1.8 years | 0.6 years |

Reference: patent publication US10731221B2, “Diagnosing IDH1 related subgroups and treatment of cancer” (Dignity Health, priority 2009, dated 2020)
